The text below walks through data of patent US20190117657A1, “METHOD OF INHIBITING HIGH FAT DIET-RELATED CONDITIONS” (South Australian Health and Medical Research Institute …, priority 2016, published 2019).

The structures appear in SMILES notation.

In the first assay the test system is MNKs. In words: eIF4E phosphorylation (P-eIF4E immunoblot) in 3T3-L1 cells as read-out of MNK activity. Format: cell-based.
Details: not given
The text has this: Similar data obtained in three replicate experiments.
The term “MNK inhibitor” as used herein is intended to refer to any compound that reduces the biological activity of MNK1 (including reducing the biological activity of one or both of splice variants MNK1 a and MNK1b) and/or MNK2 (including reducing the biological activity of one or both of splice variants MNK2a and MNK2b), including by reducing the amount of MNK1 and/or MNK2 expressed. For example, the MNK inhibitor may be a small organic molecule (also referred to as a “small molecule” herein), a peptide antagonist, an inhibitory antibody or fragment thereof, an interfering nucleotide molecule, an aptamer or other MNK inhibitor that inhibits the expression or biological activity as would be understood by those skilled in the art. The biological activity of MNK1 and MNK2 can be measured in a variety of ways, for example, by measuring phosphorylation of its substrate eIF4E to P-eIF4E using any suitable method known to those skilled in the art, for example, by performing an immunoblot or ELISA utilising a specific anti-P-eIF4E antibody, for example, the anti-phospho eIF4E (Ser209) antibody distributed by Merck Millipore, Catalogue No. 07-823 (Merck Millipore, Billerica, Mass., United States of America). […] Those skilled in the art will be aware of how to conduct suitable controls when measuring P-eIF4E levels. The MNK1 and/or MNK2 bioactivity can otherwise be measured using a cellular assay that can detect levels of MNK1 and/or MNK2 bioactivity. Antibodies that specifically detect phosphorylated MNK could also be used, for example, anti-P-MNK1 (Phospho-Mnk1 (Thr197/202) Antibody #2111; Cell Signaling Technology Inc, Danvers, Mass., United States of America). Additionally, those skilled in the art will appreciate that the MNK inhibitors should be safe for use for its intended purpose.
Tissues were harvested in RIPA lysis buffer containing 50 mM TrisHCl, pH 7.4, 150 mM NaCl, 1% Triton X-100, 0.1% sodium deoxycholate, 0.1% sodium dodecyl sulfate, 1 mM ethylenediaminetetraaacteic acid (EDTA), 50 mM β-glycerolphosphate, 0.5 mM NaVO3, 0.1% 2-mercaptoethanol and protease inhibitors (Roche). After lysis, insoluble material was removed by centrifugation at 12,000 g for 10 min at 4° C. Protein content was determined by the Bradford protein assay (Bio-Rad). Immunoblotting was performed as described in Liu et al. (2014). Blots were visualised using a LI-COR Odyssey® Quantitative Imaging System. Primary antibodies as indicated in Table 5 were from Cell Signaling Technologies, except for anti-P-eIF4E (Merck Millipore). Secondary antibodies were obtained from Thermo Fisher Scientific Inc. (Waltham, Mass., United States of America) and used at 1:20,000 dilution.
MNKs are the only kinases known to phosphorylate eIF4E, and accordingly, the phosphorylation of eIF4E (P-eIF4E) provides a direct read-out of MNK biological activity.
Since eIF4E is only phosphorylated by the MNKs, its phosphorylation status is a reliable read-out of intracellular MNK activity. […] MNK2 is the main MNK in 3T3-L1 cells and in adipose tissue (Moore et al., 2016). In additional studies, tests were conducted to assess the effect of the MNK-I2 inhibitor on the induction of differentiation markers in 3T3-L1 cells.
(In general: A western blot detects proteins with antibodies after separation by electrophoresis.)
In the case of `COc1cc(F)ccc1Nc1ncnc2sc(C(=O)N3CCCC3)c(C)c12` [MNK-5X], the “Comments (ability to inhibit MNKs, eIF4E phosphorylation)” value was “Almost inactive”.
Still for that read-out and setting: then `Cc1c(C(=O)OCCCO)sc2ncnc(Nc3ccc(F)cc3OC(C)C)c12` [MNK-7L], with “Partial activity”; and `Cc1c(C(=O)N2CCOCC2)sc2ncnc(Nc3ccc(F)cc3OC(C)C)c12` [MNK-7K], with “Almost inactive”.
On to `COc1cc(F)ccc1Nc1ncnc2sc(C(=O)N3CCCCC3)c(C)c12` [MNK-5J], for which the “Comments (ability to inhibit MNKs, eIF4E phosphorylation)” value is “inactive”.
With `Cc1c(C(=O)NC2CCCCC2)sc2ncnc(Nc3ccc(F)cc3OC(C)C)c12` [MNK-7W], the “Comments (ability to inhibit MNKs, eIF4E phosphorylation)” value is “Partial activity”.
Consider `Cc1c(C(=O)N2CCCC2)sc2ncnc(Nc3ccc(F)cc3OC(C)C)c12` [MNK-7X], for which the “Comments (ability to inhibit MNKs, eIF4E phosphorylation)” value is reported as “Partial actvitiy”.
Same read-out and setting: to `Cc1c(C(=O)N2CCN(C)CC2)sc2ncnc(Nc3ccc(F)cc3OC(C)C)c12` [MNK-7V] belongs “Partial activity”; to `Cc1c(C(=O)NCCc2c[nH]cn2)sc2ncnc(Nc3ccc(F)cc3OC(C)C)c12` [JX-MNK-7S], “Good activity”; to `Cc1c(C(=O)NCC(C)(C)CN(C)C)sc2ncnc(Nc3ccc(F)cc3OC(C)C)c12` [MNK-7P], “Good activity”.
As to `Cc1c(C(=O)NCCCO)sc2ncnc(Nc3ccc(F)cc3OC(C)C)c12` [MNK-7I], the “Comments (ability to inhibit MNKs, eIF4E phosphorylation)” value was “Partially active”.
For the compound `Cc1c(C(=O)NCCc2ccncc2)sc2ncnc(Nc3ccc(F)cc3OC(C)C)c12` [MNK-7U], the “Comments (ability to inhibit MNKs, eIF4E phosphorylation)” value was “Good activity”.
Regarding `COc1cc(F)ccc1Nc1ncnc2sc(C(=O)NCC(C)(C)CN(C)C)c(C)c12` [MNK-5P], the “Comments (ability to inhibit MNKs, eIF4E phosphorylation)” value was “Moderate activity”.
Consider `COc1cc(F)ccc1Nc1ncnc2sc(C(=O)NC3CCCCC3)c(C)c12` [MNK-5W], for which the “Comments (ability to inhibit MNKs, eIF4E phosphorylation)” value was “Moderate activity”.
The same measure, in the same setting: then `COc1cc(F)ccc1Nc1ncnc2sc(C(=O)NCCCN3CCCC3)c(C)c12` [MNK-5M], with “Good activity”; and `COc1cc(F)ccc1Nc1ncnc2sc(C(=O)NCCc3ccncc3)c(C)c12` [MNK-5U], with “Moderate activity”; and `COc1cc(F)ccc1Nc1ncnc2sc(C(=O)N3CCN(C)CC3)c(C)c12` [MNK-5V], with “Almost inactive”.
On the same count and under the same terms, then `Cc1c(C(=O)N2CCCCC2)sc2ncnc(Nc3ccc(F)cc3OC(C)C)c12` [MNK-7J], with “inactive”; and `COc1cc(F)ccc1Nc1ncnc2sc(C(=O)NCCCN3CCOCC3)c(C)c12` [MNK-5O], with “Good activity”.
As to `Cc1c(C(=O)OCCc2ccccc2)sc2ncnc(Nc3ccc(F)cc3OC(C)C)c12` [MNK-7T], the “Comments (ability to inhibit MNKs, eIF4E phosphorylation)” value was “inactive”.
For `COc1cc(F)ccc1Nc1ncnc2sc(C(=O)N3CCOCC3)c(C)c12` [MNK-5K], the “Comments (ability to inhibit MNKs, eIF4E phosphorylation)” value is “Almost inactive”.
Same read-out and setting: to `Cc1c(C(=O)OCCO)sc2ncnc(Nc3ccc(F)cc3OC(C)C)c12` [MNK-7F] belongs “Weak activity”; to `Cc1c(C(=O)NCCCN2CCOCC2)sc2ncnc(Nc3ccc(F)cc3OC(C)C)c12` [MNK-7O], “Good activity”.
Turning to `COc1cc(F)ccc1Nc1ncnc2sc(C(=O)NCCc3c[nH]cn3)c(C)c12` [MNK-5S], the “Comments (ability to inhibit MNKs, eIF4E phosphorylation)” value is reported as “Moderate activity”.

The next assay deals with 3T3-L1 cells. In words: Lipid accumulation in differentiating 3T3-L1 cells (Oil Red O / triglyceride). Format: cell-based. The settings on record: 10 μM, 3T3-L1 cells. As for the experimental part: (§1) For induction of 3T3-L1 (fibroblast) cell differentiation, pre-adipocytes were grown to 2 days post-confluence in DMEM supplemented with 10% FBS (day 0) and the medium was changed to DMEM supplemented with 10% FBS, insulin (167 nM), dexamethasone (0.5 μM), isobutylmethylxanthine (IBMX) (0.5 mM) and rosiglitazone (2 μM). After 48 h, the medium was replaced with medium containing DMEM supplemented with 10% (v/v) FBS and 167 nM insulin. On day 4, after inducing differentiation, and thereafter, the cells were cultured in DMEM with 10% FBS. The maintenance medium was changed every 48 h until the cells were utilised for experimentation (9 days from the initiation of differentiation).
Assessment of intracellular triglyceride levels was performed using Oil Red O staining as described by others (Smith et al., 1988). Briefly, on day 9 of differentiation of the 3T3-L1 cells were fixed in 10% formalin for 1 hour. […] For quantification, cells were washed extensively with water to remove unbound dye, and 1 ml isopropanol was added to the stained 6-well culture plate. After 5 min, the absorbance of the oil red extract at 510 nm was measured, with an increased absorbance indicative of an increased lipid level within the cells.
The amount of tissue-released triglyceride (TAG) was measured using a Triglyceride Quantification Kit (Abcam, ab65336).
`CC(=O)C1=C(O)C=C2Oc3c(C(N)=O)c(O)cc(O)c3[C@]2(C)C1=O` [cercosporamide, (9aS)-8-Acetyl-9,9a-dihydro-1,3,7-trihydroxy-9a-methyl-9-oxo-4-dibenzofurancaboxamide]: the lipid accumulation entry is “reduced lipid accumulation”.

The subject of the next assay is 3T3-L1 cells. In words: Induction of adipogenic gene mRNAs in differentiating 3T3-L1 cells (RT-qPCR). In kind it is cell-based. The settings on record: 10 μM, 3T3-L1 cells. How it is done: Total RNA was isolated from tissues (frozen at the time of sampling) using Trizol reagent (Sigma-Aldrich) according to the manufacturer's instructions. RNA concentrations were determined by absorbance at 260 nm, while quality and integrity were evaluated via 260/230 and 260/280 ratios using a NanoDrop spectrophotometer (Thermo Fisher Scientific). RT-real time PCR amplification was carried out using the ImProm-II Reverse Transcription System (A3800; Promega, Madison, Wis., United States of America) with random primers following the manufacturer's protocol. Subsequently, real-time quantitative (q) PCR was performed using primer sequences described in Supplemental Table S1 of Moore CEJ et al., 2016, the content of which is hereby incorporated by reference in its entirety). The comparative CT method was used to measure the amplification of target mRNA levels compared with […] (B2M) mRNA. In FIG. 1A, the relative amount of each transcript was determined using the equation 2^−dCt, where dCt=(Ct target gene-Ct ref gene), and Ct=cycle threshold.
as §1
In order to study the role of MNK2 in adipocyte differentiation, 3T3-L1 cells were used in a similar manner to that described in Example 1. […]
Background: In qPCR the cycle at which signal appears reflects the starting amount.
`CC(=O)C1=C(O)C=C2Oc3c(C(N)=O)c(O)cc(O)c3[C@]2(C)C1=O` [cercosporamide, (9aS)-8-Acetyl-9,9a-dihydro-1,3,7-trihydroxy-9a-methyl-9-oxo-4-dibenzofurancaboxamide]: the “induction of adipogenic genes such as PPARγ (mRNA)” value is listed as “impaired the induction of genes such as PPARγ”.

The next assay deals with MNK1 (Homo sapiens, UniProt Q9BUB5).
MNK1, sequence (Q9BUB5 whole entry, species assumed): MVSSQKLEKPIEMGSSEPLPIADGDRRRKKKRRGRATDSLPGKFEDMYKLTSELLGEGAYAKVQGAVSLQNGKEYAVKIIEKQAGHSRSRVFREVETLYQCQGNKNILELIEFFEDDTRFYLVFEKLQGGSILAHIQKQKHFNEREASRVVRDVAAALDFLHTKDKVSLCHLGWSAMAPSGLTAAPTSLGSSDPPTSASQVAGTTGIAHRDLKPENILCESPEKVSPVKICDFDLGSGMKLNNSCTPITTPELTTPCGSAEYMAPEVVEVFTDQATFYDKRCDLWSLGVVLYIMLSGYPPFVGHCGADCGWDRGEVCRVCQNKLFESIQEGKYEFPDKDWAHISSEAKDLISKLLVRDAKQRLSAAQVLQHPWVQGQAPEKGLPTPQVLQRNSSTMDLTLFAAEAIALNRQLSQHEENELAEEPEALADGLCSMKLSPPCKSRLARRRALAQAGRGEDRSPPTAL
Test: not given
The settings on record: cited from earlier work.
On to `COC(=O)[C@@]1(C)C[C@@]2(C)O[C@]1(C)n1c3ccccc3c3c4c(c5c6ccccc6n2c5c31)C(=O)NC4` [CGP052088], for which the IC50 (commonly the concentration at which inhibition is half-maximal) was 70 nM.

The test system of the next assay is other protein kinases.
Test: not given
Conditions: cited from earlier work.
On to `CC(=O)C1=C(O)C=C2Oc3c(C(N)=O)c(O)cc(O)c3[C@]2(C)C1=O` [cercosporamide, (9aS)-8-Acetyl-9,9a-dihydro-1,3,7-trihydroxy-9a-methyl-9-oxo-4-dibenzofurancaboxamide], for which the “inhibition of other protein kinases” value is “inhibit other protein kinases in addition to the MNKs”.
